In ChEMBL document CHEMBL3046394, “Conyza canadensis (L.) Cronquist response to pre-plant application of residual herbicides in cotton (Gossypium hirsutum L.)” (Crop Prot, 2009):

Legend:
[1] = Half life of the compound under anaerobic condition
[2] = Half life of the compound
[3] = Half life of the compound under aerobic condition
Erigeron canadensis [4] = test: Herbicidal activity against glyphosate-resistant Conyza canadensis (horseweed) assessed as residual control at 1120 g a.i./ha treated during autumn and spring measured 8 weeks after treatment; assay type: functional
Erigeron canadensis [5] = test: Herbicidal activity against glyphosate-resistant Conyza canadensis (horseweed) assessed as residual control at 1120 g a.i./ha treated during autumn and spring measured 6 weeks after treatment; assay type: functional
Erigeron canadensis [6] = test: Herbicidal activity against glyphosate-resistant Conyza canadensis (horseweed) assessed as residual control at 1120 g a.i./ha treated during autumn and spring measured 4 weeks after treatment; assay type: functional
Gossypium hirsutum = test: Toxicity in Gossypium hirsutum (cotton) assessed as formation of injury to cotton; assay type: organism-based; conditions: in vivo
Erigeron canadensis [7] = test: Herbicidal activity against glyphosate-resistant Conyza canadensis (horseweed) assessed as residual control at 71 g a.i./ha treated during autumn and spring measured 8 weeks after treatment; assay type: functional
Erigeron canadensis [8] = test: Herbicidal activity against glyphosate-resistant Conyza canadensis (horseweed) assessed as residual control at 71 g a.i./ha treated during autumn and spring measured 6 weeks after treatment; assay type: functional
Erigeron canadensis [9] = test: Herbicidal activity against glyphosate-resistant Conyza canadensis (horseweed) assessed as residual control at 71 g a.i./ha treated during autumn and spring measured 4 weeks after treatment; assay type: functional
Erigeron canadensis [10] = test: Herbicidal activity against glyphosate-resistant Conyza canadensis (horseweed) assessed as residual control at 1400 g a.i./ha treated during autumn and spring measured 8 weeks after treatment; assay type: functional
Erigeron canadensis [11] = test: Herbicidal activity against glyphosate-resistant Conyza canadensis (horseweed) assessed as residual control at 1400 g a.i./ha treated during autumn and spring measured 6 weeks after treatment; assay type: functional
Erigeron canadensis [12] = test: Herbicidal activity against glyphosate-resistant Conyza canadensis (horseweed) assessed as residual control at 1400 g a.i./ha treated during autumn and spring measured 4 weeks after treatment; assay type: functional
Erigeron canadensis [13] = test: Herbicidal activity against glyphosate-resistant Conyza canadensis (horseweed) assessed as residual control at 1680 g a.i./ha treated during autumn and spring measured 8 weeks after treatment; assay type: functional
Erigeron canadensis [14] = test: Herbicidal activity against glyphosate-resistant Conyza canadensis (horseweed) assessed as residual control at 1680 g a.i./ha treated during autumn and spring measured 6 weeks after treatment; assay type: functional
Erigeron canadensis [15] = test: Herbicidal activity against glyphosate-resistant Conyza canadensis (horseweed) assessed as residual control at 1680 g a.i./ha treated during autumn and spring measured 4 weeks after treatment; assay type: functional
Erigeron canadensis [16] = test: Herbicidal activity against glyphosate-resistant Conyza canadensis (horseweed) assessed as residual control at 420 g a.i./ha treated during autumn and spring measured 4 weeks after treatment; assay type: functional
Erigeron canadensis [17] = test: Herbicidal activity against glyphosate-resistant Conyza canadensis (horseweed) assessed as residual control at 420 g a.i./ha treated during autumn and spring measured 8 weeks after treatment; assay type: functional
Erigeron canadensis [18] = test: Herbicidal activity against glyphosate-resistant Conyza canadensis (horseweed) assessed as residual control at 420 g a.i./ha treated during autumn and spring measured 6 weeks after treatment; assay type: functional
Erigeron canadensis [19] = test: Herbicidal activity against glyphosate-resistant Conyza canadensis (horseweed) assessed as residual control at 47 g a.i./ha treated during autumn and spring measured 8 weeks after treatment; assay type: functional
Erigeron canadensis [20] = test: Herbicidal activity against glyphosate-resistant Conyza canadensis (horseweed) assessed as residual control at 47 g a.i./ha treated during autumn and spring measured 6 weeks after treatment; assay type: functional
Erigeron canadensis [21] = test: Herbicidal activity against glyphosate-resistant Conyza canadensis (horseweed) assessed as residual control at 47 g a.i./ha treated during autumn and spring measured 4 weeks after treatment; assay type: functional

Structure (SMILES): COc1c(Cl)ccc(Cl)c1C(=O)O [3,6 DICHLOROMETHOXYBENZOIC ACID]
- half-life [1]: 58 days
- half-life [2]: 7 days
- half-life [3]: 31 days

Structure (SMILES): CN(C)C(=O)Nc1ccc(Cl)c(Cl)c1 [DCMU]
- Activity (Erigeron canadensis [4]): 25%
- Activity (Erigeron canadensis [5]): 99%
- Activity (Erigeron canadensis [6]): 100%
- Activity (Gossypium hirsutum): Non-toxic

Structure (SMILES): C#CCN1C(=O)COc2cc(F)c(N3C(=O)C4=C(CCCC4)C3=O)cc21 [FLUMIOXAZIN]
- Activity (Erigeron canadensis [7]): 35%
- Activity (Erigeron canadensis [8]): 99%
- Activity (Erigeron canadensis [9]): 100%
- Activity (Gossypium hirsutum): Non-toxic

Structure (SMILES): CN(C)C(=O)Nc1cccc(C(F)(F)F)c1 [FLUOMETURON]
- Activity (Erigeron canadensis [10]): 80%
- Activity (Erigeron canadensis [11]): 99%
- Activity (Erigeron canadensis [12]): 98%
- Activity (Gossypium hirsutum): Non-toxic

Structure (SMILES): CNc1cnn(-c2cccc(C(F)(F)F)c2)c(=O)c1Cl [NORFLURAZONE]
- Activity (Gossypium hirsutum): Non-toxic
- Activity (Erigeron canadensis [13]): 100%
- Activity (Erigeron canadensis [14]): 100%
- Activity (Erigeron canadensis [15]): 100%

Structure (SMILES): CCOc1cc(Oc2ccc(C(F)(F)F)cc2Cl)ccc1[N+](=O)[O-] [OXYFLUORFEN]
- Activity (Erigeron canadensis [16]): 100%
- Activity (Gossypium hirsutum): Non-toxic
- Activity (Erigeron canadensis [17]): 95%
- Activity (Erigeron canadensis [18]): 99%

Structure (SMILES): CSc1nc(NC(C)C)nc(NC(C)C)n1 [PROMETRYN]
- Activity (Erigeron canadensis [4]): 20%
- Activity (Erigeron canadensis [5]): 98%
- Activity (Erigeron canadensis [6]): 100%
- Activity (Gossypium hirsutum): Non-toxic

Structure (SMILES): COc1cc(OC)nc(Sc2cccc(Cl)c2C(=O)O)n1 [PYRITHIOBAC]
- Activity (Gossypium hirsutum): Non-toxic
- Activity (Erigeron canadensis [19]): 37%
- Activity (Erigeron canadensis [20]): 72%
- Activity (Erigeron canadensis [21]): 60%
